According to US4290954A, “Tetrahydroxanthone derivatives” (Kowa Company Limited, priority 1978, dated 1981):

What was measured:
peritoneal cells = experiment: Inhibitory effects on histamine release (sensitized rat peritoneal cells, OA challenge); assay type: cell-based, male Sprague-Dawley (SD) rat; conditions: 10 min at 37° C., OA added simultaneously; for minimal effective concentration: 10 min, read-out: Inhibition of Histamine release (lowest effective concentration to inhibit the release of histamine)
Procedure: An anti-ovalbumin (OA) mouse serum (IgE like antibody, PCA titer; 1:400-1:800) was diluted 20 times with physiological saline. A male Sprague-Dawley (SD) rat weighing 300-400 g was passively sensitized by intraperitoneal administration of 5 ml of the diluted serum. 48 Hours later, the rat was decapitated and exsanguinated. 10 ml of Tyrode's solution containing 5 units/ml of heparin was then injected into the peritoneal cavity of the rat. After mixing the solution by gentle massage for 60 seconds, the fluid in the peritoneal cavity was collected and then centrifuged for 5 minutes at 120×g to harvest peritoneal cells. The peritoneal cells were suspended in Tyrode's solution so as to adjust the concentration of 10^6 cells/ml. After preincubating 1.6 ml of the cell suspension for 4 minutes at 37° C., 0.2 ml of each test compound solution and 0.2 ml of OA solution (100 μg/ml) were added simultaneously and thereafter incubated for 10 minutes at 37° C. The reaction was terminated by ice-cooling the mixture, and the thus incubated solution was centrifuged for 5 minutes at 670×g to divide the same into a cell pellet and a supernatant liquid phase. The histamine content in each of the phases was determined by the fluorometric method of Grant et al*. Each tested pharmaceutical compound was used by dissolving it in Tyrode's solution prior to its use.
*Grant, J. A., Settle, L., Whorton, E. B. and Dupree, E., Complement-mediated releast of histamine from human basophils: II. Biochemical characterization of the reaction, J. Immunol., 117, 450 (1976)
The results of tests (1) and (2) are shown in Table 1 in which each figure in the "Inhibition of Histamine Release" column denotes the lowest effective concentration to inhibit the release of histamine.

[1] = tested on: passive cutaneous anaphylaxis (PCA); experiment: Inhibitory effects on passive cutaneous anaphylaxis (PCA); assay type: in vivo, male SD rat; conditions: 100 mg/kg orally one hour prior to the antigen challenge, rat; for inhibition in vivo at 100 mg/kg: po, 1 h, read-out: P C A (p.o), degree of inhibition
Procedure: A male SD rat weighing about 300 g was used, whose hair on the back had been shaved with an electric clipper. The back skin was passively sensitized by intradermal injection of 0.1 ml of anti-OA mouse serum (IgE like antibody) which had been diluted to three concentration levels. 4 Hours later, the rat was challenged by intravenous injection of an antigen solution of 2 ml/kg containing OA (1 mg/ml) and Evans blue (0.5 mg/ml). 30 Minutes after the antigen challenge, the rat was decapitated and exsanguinated. Then, the skin was reflected, and the area of blue spots was measured in milimeters by multiplying the longer diameter by the shorter diameter. […] The degree of inhibition of the test compound is expressed by the following notations.
±: 0-25% inhibition with no significant difference from the control
±: 25-50% inhibition with a significant difference from the control
++: 50-75% inhibition with a significant difference from the control
+++: 75-100% inhibition with a significant difference from the control
Each test pharmaceutical compound was suspended in a 0.2% carboxymethylcellulose solution and administered orally at a rate of 100 mg/kg one hour prior to the antigen challenge. Disodium cromoglycate which was known as an anti-allergic drug was employed as a control or reference substance.

[2] = Acute toxic test (LD50, up-down method); conditions: in vivo; oral, male SD rat, 72 hours after administration
Procedure: Each of the compounds shown in Table 2 was suspended in a 0.5% carboxymethylcellulose solution and administered orally to a male SD rat (5 weeks old). Upon the lapse of 72 hours after the administration, the LD50 value was determined by the up-down method.

SMILES	minimal effective concentration (peritoneal cells) [µg/mL]	inhibition in vivo at 100 mg/kg [1] [%]	also measured
CC1CCc2oc3ccc(C(=O)Nc4ccccc4C(=O)O)cc3c(=O)c2C1 (stereo not drawn)	0.3	0 to 25	–
O=C(OC1CCc2oc3ccc(-c4nnn[nH]4)cc3c(=O)c2C1)c1ccccc1 (stereo not drawn)	10	–	–
CC(C)(C)C1CCc2oc3ccc(C(=O)Nc4nnn[nH]4)cc3c(=O)c2C1 (stereo not drawn) [2-CONHTz 7-tert.Bu, 7-(t-butyl)-5,6,7,8-tetrahydro-N-(5'-tetrazolyl)-9-oxo-xanthene-2-carboxylic acid amide]	1	0 to 25	–
Cc1cc(C(=O)O)cc2c(=O)c3c(oc12)CCCC3 [2-COOH 4-CH3, 4-methyl-5,6,7,8-tetrahydro-9-oxo-xanthene-2-carboxylic acid]	–	50 to 75	–
CC1CCc2oc3ccc(C(=O)O)cc3c(=O)c2C1 (stereo not drawn) [2-COOH 7-CH3, 7-methyl-5,6,7,8-tetrahydro-9-oxo-xanthene-2-carboxylic acid]	0.3	–	–
CC(C)(C)C1CCc2oc3ccc(C(=O)O)cc3c(=O)c2C1 (stereo not drawn) [2-COOH 7-tert.Bu, 7-(t-butyl)-5,6,7,8-tetrahydro-9-oxo-xanthene-2-carboxylic acid]	0.3	75 to 100	–
Cc1cc(-c2nnn[nH]2)cc2c(=O)c3c(oc12)CCCC3 [2-Tz 4-CH3, 4-methyl-5,6,7,8-tetrahydro-2-(5'-tetrazolyl)-9-xanthone]	0.1	–	–
CC1CCc2oc3ccc(-c4nn[nH]n4)cc3c(=O)c2C1 (stereo not drawn) [2-Tz 7-CH3, 2-methyl-1,2,3,4-tetrahydro-7-(5'tetrazolyl)-9-xanthone]	–	–	Inhibition of Histamine release (lowest effective concentration to inhibit the release of histamine) (peritoneal cells): 0.01 µg/mL; P C A (p.o), degree of inhibition [1]: ± (0-25% inhibition with no significant difference from the control)
O=C(O)C1CCc2oc3ccc(-c4nnn[nH]4)cc3c(=O)c2C1 (stereo not drawn) [2-Tz 7-COOH]	0.01	–	–
CC(C)(C)C1CCc2oc3ccc(-c4nnn[nH]4)cc3c(=O)c2C1 (stereo not drawn) [2-Tz 7-tert.Bu, 2-(t-butyl)-1,2,3,4-tetrahydro-7-(5'-tetrazolyl)-9-xanthone]	0.1	–	–
Cc1ccc2c(=O)c3c(oc2c1)CCC(C(=O)Nc1nnn[nH]1)C3 (stereo not drawn) [3-CH3 7-CONHTz]	3	0 to 25	–
Cc1ccc2c(=O)c3c(oc2c1)CCC(c1nnn[nH]1)C3 (stereo not drawn) [3-CH3 7-Tz, 6-Methyl-1,2,3,4-tetrahydro-2-(5'-tetrazolyl)-9-oxo-xanthene]	1	–	–
CC1CCc2oc3cc(-c4nnn[nH]4)ccc3c(=O)c2C1 (stereo not drawn) [3-Tz 7-CH3, 2-methyl-1,2,3,4-tetrahydro-6-(5'-tetrazolyl)-9-xanthone]	–	50 to 75	–
O=C(O)c1cc(=O)c2c(OCC(O)COc3cccc4oc(C(=O)O)cc(=O)c34)cccc2o1 [Disodium cromoglycate, reference compound]	3	0 to 25	–
O=C(Nc1nnn[nH]1)c1ccc2oc3c(c(=O)c2c1)CCCC3 [Example 2-CONHTz, 5,6,7,8-tetrahydro-N-(5'-tetrazolyl)-9-oxo-xanthene-2-carboxylic acid amide]	0.1	–	–
O=C(O)c1ccc2oc3c(c(=O)c2c1)CCCC3 [Example 2-COOH, 5,6,7,8-Tetrahydro-9-oxo-xanthene-2-carboxylic acid]	10	–	LD50 at 72 h [2]: > 4000 mg/kg
O=c1c2c(oc3ccc(-c4nnn[nH]4)cc13)CCCC2 [Example 2-Tz, 1,2,3,4-Tetrahydro-7-(5'-tetrazolyl)-9-xanthone]	0.01	–	LD50 at 72 h [2]: > 4000 mg/kg
O=C(O)c1ccc2c(=O)c3c(oc2c1)CCCC3 [Example 3-COOH, 5,6,7,8-tetrahydro-9-oxo-xanthene-3-carboxylic acid]	10	–	–
O=c1c2c(oc3cc(-c4nnn[nH]4)ccc13)CCCC2 [Example 3-Tz, 5,6,7,8-tetrahydro-3-(5'-tetrazolyl)-9-xanthone]	0.3	50 to 75	–
Cc1ccc2c(=O)c3c(oc2c1)CCC(C(=O)Nc1ccccc1C(=O)O)C3 (stereo not drawn) [drawing 19]	3	–	–
O=C(Nc1ccccc1C(=O)O)c1ccc2oc3c(c(=O)c2c1)CCCC3 [drawing 20]	1	–	P C A (p.o), degree of inhibition [1]: + +
O=C(Nc1ccccc1C(=O)O)c1ccc2oc3c(c(=O)c2c1)CCCC3 [drawing 25]	–	–	LD50 at 72 h [2]: > 4000 mg/kg
Cc1ccc2c(=O)c3c(oc2c1)CCC(C(=O)Nc1ccccc1C(=O)O)C3 (stereo not drawn) [drawing 26]	–	–	LD50 at 72 h [2]: > 4000 mg/kg
